# Results reported in patent US20240350536A1, “Application of Bi-Phenols in Anti-ototoxicity and Hearing Protection” (Northwestern University, priority 2017, published 2024).
# “Also recorded” adds a separate entry of the source. Where two headings read alike, the source gives them in different places.
# Key:
# cervical cancer cells = assay: Survival of cervical cancer cells with cisplatin and honokiol; assay type: cell-based
# Description: (§1) FIG. 10. […] C: cisplatin; H: honokiol. […] Each treatment was repeated in triplets. The data were normalized by the number of untreated control (C0H0).
# (§2) Because the role of SIRT3 may be different in different cancers, we selected three (3) different cancer cells for testing: prostate cancer cells, cervical cancer cells, and colon cancer cells. (See FIG. 10). Cisplatin was administered to the cancer cell lines with honokiol.
# [1] = system: prostate cancer cells (C4-2B); assay: Survival of prostate cancer cells with cisplatin and honokiol; assay type: cell-based
# Description: as §1, §2
# outer hair cells (OHC) = assay: Immunofluorescent histochemistry and confocal imaging of cochlear whole mount; assay type: in vivo, mice
# Description: FIG. 13. Confocal images of the immunostaining (merged) of cochleae treated with Cis 15 (A) and Cis 15+HNK 20 (B) mg/kg, under 20× objectives.
# FIG. 14. High-resolution confocal images (60× […]) of cochleae treated with Cis 15 (Left) and Cis 15+HNK 20 (Right), taken at the locations marked by white squares in FIGS. 13A and B, respectively. The white arrows indicate the nuclei of the remaining OHCs and the hollow arrows indicate missing OHCs. Note the panels for hair bundles (phalloidin staining) might be off focus and are only for indicating the correct position of the bodies and nuclei of the OHCs.
# Immunofluorescent histochemistry (IFHC) of a cochlear whole mount was performed after the physiological studies described above using prestin antibody (for outer hair cells (OHC)), phalloidin (for hair bundle) and 4′,6-diamidino-2-phenylindole (DAPI) (for nuclei). […] (See FIG. 14A). HC loss can be indicated by the scarcity of remaining nuclei (white arrows).
# colon cancer cells = assay: Survival of colon cancer cells with cisplatin and honokiol; assay type: cell-based
# Description: as §1, §2
# [2] = Weight loss and animal survival in cisplatin-treated mice; assay type: in vivo
# Description: (See FIG. 15). […] (See FIG. 15). […] (See FIG. 15A). […] (See FIG. 15B).
# [3] = system: outer hair cell (OHC) function; assay type: in vivo, mice
# Description: FIG. 12A-12E. HNK protection against cisplatin-induced changes of DPOAE amplitude. […] The DPOAE shift, normalized to Day 0, of all the groups are plotted in (FIG. 12B to FIG. 12E). […] The results of the 2 animals in Cis 15 mg/kg group on Day 14 were both plotted in (FIG. 12B) as the dashed lines and open circles. […].
# Distortion product oto-acoustic emissions (DPOAEs), which are an indication of outer hair cell (OHC) function, were measured in a separate series of experiments to estimate OHC protection by honokiol (HNK). (See FIG. 12A-12E). […] (See FIGS. 12D and 12E). After pre-treatment with HNK at a dosage of 10 mg/kg, the DPOAE shift was observed only at frequencies of 27 kHz and higher with a much smaller amplitude. (See FIG. 12D).
# [4] = system: SIRT3, Caspase 3, PARP in HEI-OC1 cells; assay: Western blot of SIRT3 and apoptosis-related proteins in HEI-OC1 cells; assay type: cell-based, mouse
# Description: FIG. 9. […] (A) C: cisplatin; H: HNK. […] Cisplatin and honokiol were added simultaneously.
# (§3) (See FIG. 9). […] (See FIG. 9). […] (See FIG. 9).
# mice = assay: Auditory Brainstem Response (ABR) threshold shift in cisplatin-treated mice; assay type: in vivo
# Description: Average=256. The error bars of all data points are standard deviations.
# [5] = literature statement, cited from earlier work
# HEI-OC1 cells = system: HEI-OC1 cells
# Description: FIG. 9. […] The data were normalized to the number of cells in the negative control (C0H0).
# as §3
# [6] = honokiol co-administered with cisplatin
# [7] = cisplatin with honokiol pre-treatment
smiles,measurement,setting,value
"N.N.[Cl][Pt][Cl] [cisplatin, reference compound]",reduction in cervical cancer cells,cervical cancer cells; cisplatin 50 μM or 100 μM,mild reduction
same,loss of prostate cancer cells,[1]; cisplatin 50 μM or 100 μM,massive loss
same,OHC organization and HC loss,"outer hair cells (OHC); Cis 15 mg/kg, basal 1/3 of the cochlea (estimated over 22 kHz)",Significant disruption of OHC organization and HC loss
same,loss of colon cancer cells,colon cancer cells; cisplatin 100 μM,massive loss
same,survival rate,"[2]; cisplatin 20 mg/kg, day 8",zero
same,DPOAE amplitude at high frequencies,"[3]; mouse, in vivo",reduced
same,frequencies of apparent DPOAE amplitude drop,"[3]; mouse, in vivo",over 16 kHz
"C=CCc1ccc(O)c(-c2ccc(O)c(CC=C)c2)c1 [honokiol, 2-(4-hydroxy-3-prop-2-enyl-phenyl)-4-prop-2-enyl-phenol]",effect with cisplatin on cervical cancer cells,"cervical cancer cells; honokiol 25 μM, cisplatin 50 μM (C50H25)",synergistic effect
same,protection of cervical cancer cells from the toxicity of cisplatin,cervical cancer cells; [6],not observed to protect
same,prostate cancer cell (C4-2B) death from cisplatin treatment,"[1]; HNK up to 25 μM, 50 μM cisplatin, preliminary data",did not prevent
same,protection of prostate cancer cells from the toxicity of cisplatin,[1]; [6],not observed to protect
same,OHC structure,"outer hair cells (OHC); Cis 15 + HNK 20 mg/kg, up to the 40 kHz region, only sporadic loss of HCs",nearly intact OHC structure
same,SIRT3 expression level,"[4]; HEI-OC1, HNK with cisplatin, 24 hours after cisplatin treatment, listed as HNK",increased; also recorded: elevated
same,DNA damage,"[4]; HEI-OC1, cisplatin in the presence of HNK, pilot studies",diminished
same,cleavage of poly ADP ribose polymerase (PARP),"[4]; HEI-OC1, honokiol",decrease
same,expression of Caspase 3,"[4]; HEI-OC1, honokiol",decrease
same,expression of SIRT3,"[4]; HEI-OC1, increasing concentrations of honokiol",increase
same,expression of early apoptosis mark caspase-3,"[4]; HEI-OC1 co-treated with HNK and cisplatin versus cisplatin alone, pilot studies",higher in some cells
same,effect with cisplatin on colon cancer cells,"colon cancer cells; honokiol 10 μM or 25 μM, cisplatin 50 μM",synergistic effect
same,protection of colon cancer cells from the toxicity of cisplatin,colon cancer cells; [6],not observed to protect
same,TS in tonal ABR at the highest frequency (32 kHz),mice; HNK 10 mg/kg and cisplatin 15 mg/kg,significant TS
same,TS at other frequencies and dose combinations,"mice; HNK 10-20 mg/kg, cisplatin 15-20 mg/kg",No further significant TS
same,ABR TS induced by cisplatin,mice; mice pre-treated with HNK,decreased significantly
same,passage of the blood-brain barrier,[5],capable of passing the blood-brain barrier
same,passage of the blood-brain barrier,[5]; listed as HNK,can also cross the blood brain barrier; also recorded: permeable; also recorded: can pass through the blood-brain barrier
same,cell toxicity,HEI-OC1 cells,no cell toxicity
same,HEI-OC1 apoptosis induced by cisplatin,"HEI-OC1 cells; 10 μM HNK, 50 μM cisplatin, 24 hours, preliminary study",completely prevent
same,protection against high dose cisplatin ototoxicity,"HEI-OC1 cells; HNK 10 μM, cisplatin 50 μM",~100%
same,protection of HEI-OC1 cells against cisplatin-induced cell loss,"HEI-OC1 cells; honokiol 5 μM or 10 μM, cisplatin 50 μM or 100 μM",protect
same,maximum weight loss,[2]; cisplatin 15 mg/kg with honokiol,about 15%
same,animals lost,[2]; cisplatin 20 mg/kg with honokiol,20%
same,survival rate / animal loss,[2]; [7],significantly reduced; also recorded: improved significantly
same,weight loss,[2]; [7],significantly reduced; also recorded: largely improved
same,DPOAE amplitude changes,"[3]; mice pre-treated with HNK, cisplatin 15 mg/kg",less pronounced
